Measured values taken from ChEMBL document CHEMBL1122122, “Drug latentiation by gamma-glutamyl transpeptidase” (J Med Chem, 1982).
Residues, ends and D or L forms follow the SMILES beside them.

Test: Compound evaluated for drug latentiation activity by determining relative rate of cleavage by gamma-glutamyl transpeptidase
Type: functional

Structure (SMILES)	Relative activity
NC(CCC(=O)Nc1ccc(O)cc1)C(=O)O (stereo not given)	98
NC(CCC(=O)Nc1ccccc1O)C(=O)O (stereo not given)	95
CSC[C@H](NC(=O)CC[C@H](N)C(=O)O)C(=O)NCC(=O)O	100
NC(CCC(=O)Nc1cccc(O)c1)C(=O)O (stereo not given)	96

Results, then the molecule that gave them:

Relative activity	Structure (SMILES)
4	NC(CCC(=O)N1CCCC1C(=O)O)C(=O)O (stereo not given)
5	NC(CCC(=O)N1CSCC1C(=O)O)C(=O)O (stereo not given)
9	NC(CCC(=O)NCCCC(=O)O)C(=O)O (stereo not given)
95	CCC(NC(=O)CCC(N)C(=O)O)C(=O)O (stereo not given)
70	NC(=O)CC[C@H](N)C(=O)NCC(=O)O (H-Gln-Gly-OH)
19	NC(CCC(=O)NC1(C(=O)O)CCCC1)C(=O)O (stereo not given)
